Reference: US8952024B2, “Herbicidal pyrimidone derivatives” (E I du Pont de Nemours and Company, priority 2009, dated 2015)

Columns and labels:
Type in all cases: in vivo
[1] = system: wild oat (Avena fatua); experiment: Test B pre-/postemergence plant response; conditions: for Oat, Wild plant response rating: 0 to 100 scale
How it was run: (§1)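 Test compounds, formulated in a non-phytotoxic solvent mixture with surfactant, are applied to the soil surface (loam and sand blend) right after seeding, or sprayed over plants at the 1- to 4-leaf stage grown in peat moss/vermiculite medium. After 13 to 15 days under glasshouse conditions, each species is scored visually from 0 (no effect) to 100 (complete control) against controls.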

[2] = system: blackgrass (Alopecurus myosuroides); experiment: Test B pre-/postemergence plant response; conditions: for Blackgrass plant response rating: 0 to 100 scale
How it was run: as §1

[3] = system: corn (Zea mays); experiment: Test B pre-/postemergence plant response; conditions: for Corn plant response rating: 0 to 100 scale
How it was run: as §1

[4] = system: morningglory (Ipomoea coccinea); experiment: Test B pre-/postemergence plant response; conditions: for Morningglory plant response rating: 0 to 100 scale
How it was run: as §1

[5] = system: kochia (Kochia scoparia); experiment: Test B pre-/postemergence plant response; conditions: Postemergence
How it was run: as §1

[6] = system: cocklebur (Xanthium strumarium); experiment: Test B pre-/postemergence plant response; conditions: Preemergence; for Cocklebur plant response rating: 250 g ai/ha, 0 to 100 scale
How it was run: as §1

[7] = system: johnsongrass (Sorghum halepense); experiment: Test B pre-/postemergence plant response; conditions: for Johnsongrass plant response rating: 0 to 100 scale
How it was run: as §1

[8] = system: soybean (Glycine max); experiment: Test B pre-/postemergence plant response; conditions: for Soybean plant response rating: 0 to 100 scale
How it was run: as §1

[9] = system: giant foxtail (Setaria faberii); experiment: Test B pre-/postemergence plant response; conditions: for Foxtail, Giant plant response rating: 0 to 100 scale
How it was run: as §1

[10] = system: bermudagrass (Cynodon dactylon); experiment: Test B pre-/postemergence plant response; conditions: for Bermudagrass plant response rating: 0 to 100 scale, 0 no effect
How it was run: as §1

[11] = system: windgrass (Apera spica-venti); experiment: Test B postemergence plant response; conditions: Postemergence
How it was run: (§2)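 Plants grown in peat/vermiculite medium were sprayed postemergence at 2–18 cm height (1- to 4-leaf stage). After 13–15 days in the greenhouse, response was rated visually against untreated controls on a 0–100 scale (0 no effect, 100 complete control).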

[12] = system: chickweed (Stellaria media); experiment: Test B postemergence plant response; conditions: Postemergence
How it was run: as §2

[13] = system: canarygrass (Phalaris minor); experiment: Test B postemergence plant response; conditions: Postemergence
How it was run: as §2

[14] = system: winter barley (Hordeum vulgare); experiment: Test B postemergence plant response; conditions: Postemergence
How it was run: as §2

[15] = Postemergence, 31 g ai/ha, 0 to 100 scale (0 no effect, 100 complete control)
[16] = Postemergence, 62 g ai/ha, scale 0 to 100 (0 no effect, 100 complete control)
[17] = Postemergence, 250 g ai/ha, scale 0 to 100 (0 no effect, 100 complete control), 13 to 15 days
[18] = Preemergence, 31 g ai/ha, scale 0 to 100 (0 no effect, 100 complete control)
[19] = Preemergence, 62 g ai/ha, scale 0 to 100 (0 no effect, 100 complete control)
[20] = Preemergence, 125 g ai/ha, scale 0 to 100, 0 no effect, 100 complete control
[21] = Postemergence, 125 g ai/ha, scale 0 to 100 (0 no effect, 100 complete control)
[22] = 31 g ai/ha, 0 to 100 scale (0 no effect, 100 complete control)
[23] = 62 g ai/ha, scale 0 to 100 (0 no effect, 100 complete control)
[24] = 125 g ai/ha, scale 0 to 100 (0 no effect, 100 complete control)
[25] = 250 g ai/ha, scale 0 to 100 (0 no effect, 100 complete control), 13 to 15 days
[26] = Preemergence, 250 g ai/ha, 100 complete control

Structure (SMILES): COc1ccc(-n2c(-c3ccccc3)ncc(C(=O)C3=C(O)CCCC3=O)c2=O)cc1OC [Compound 218]
- Plant response rating, Oat, Wild [1, 15]: 40
- Plant response rating, Oat, Wild [1, 16]: 45
- Plant response rating, Oat, Wild [1, 17]: 60
- Plant response rating, Oat, Wild [1, 18]: 0
- Plant response rating, Oat, Wild [1, 19]: 0
- Plant response rating, Oat, Wild [1, 20]: 0
- Oat, Wild plant response rating ([1]; Preemergence, 250 g ai/ha): 0
- Plant response rating, Blackgrass [2, 15]: 0
- Plant response rating, Blackgrass [2, 16]: 0
- Plant response rating, Blackgrass [2, 21]: 5
- Plant response rating, Blackgrass [2, 17]: 5
- Plant response rating, Blackgrass [2, 18]: 0
- Plant response rating, Blackgrass [2, 19]: 0
- Plant response rating, Blackgrass [2, 20]: 0
- Blackgrass plant response rating ([2]; Preemergence, 250 g ai/ha): 20
- Plant response rating, Corn [3, 15]: 0
- Plant response rating, Corn [3, 16]: 10
- Plant response rating, Corn [3, 21]: 75
- Plant response rating, Corn [3, 17]: 80
- Plant response rating, Corn [3, 18]: 0
- Plant response rating, Corn [3, 19]: 0
- Plant response rating, Corn [3, 20]: 0
- Corn plant response rating ([3]; Preemergence, 250 g ai/ha): 0
- Plant response rating, Morningglory [4, 15]: 70
- Plant response rating, Morningglory [4, 16]: 70
- Plant response rating, Morningglory [4, 21]: 80
- Plant response rating, Morningglory [4, 17]: 98
- Plant response rating, Morningglory [4, 18]: 0
- Plant response rating, Morningglory [4, 19]: 0
- Plant response rating, Morningglory [4, 20]: 15
- Morningglory plant response rating ([4]; Preemergence, 250 g ai/ha): 65
- Plant response rating, Kochia [5, 22]: 35
- Plant response rating, Kochia [5, 23]: 85
- Plant response rating, Kochia [5, 24]: 100
- Plant response rating, Kochia [5, 25]: 100
- Plant response rating, Cocklebur [6, 23]: 0
- Plant response rating, Cocklebur ([6]; 125 g ai/ha, scale 0 to 100, 0 no effect, 100 complete control): 90
- Cocklebur plant response rating [6]: 100
- Plant response rating, Johnsongrass [7, 21]: 55
- Plant response rating, Johnsongrass [7, 17]: 80
- Plant response rating, Johnsongrass [7, 18]: 0
- Plant response rating, Johnsongrass [7, 19]: 0
- Plant response rating, Johnsongrass [7, 20]: 20
- Johnsongrass plant response rating ([7]; Preemergence, 250 g ai/ha): 45
- Plant response rating, Soybean [8, 15]: 85
- Plant response rating, Soybean [8, 16]: 100
- Plant response rating, Soybean [8, 17]: 100
- Plant response rating, Soybean [8, 18]: 0
- Plant response rating, Soybean [8, 19]: 65
- Plant response rating, Soybean [8, 20]: 80
- Soybean plant response rating ([8]; Preemergence, 250 g ai/ha): 90
- Plant response rating, Foxtail, Giant [9, 15]: 40
- Plant response rating, Foxtail, Giant [9, 16]: 55
- Plant response rating, Foxtail, Giant [9, 21]: 65
- Plant response rating, Foxtail, Giant [9, 17]: 85
- Plant response rating, Foxtail, Giant [9, 18]: 0
- Plant response rating, Foxtail, Giant [9, 19]: 0
- Plant response rating, Foxtail, Giant [9, 20]: 20
- Foxtail, Giant plant response rating ([9]; Preemergence, 250 g ai/ha): 85
- Plant response rating, Bermudagrass [10, 15]: 70
- Plant response rating, Bermudagrass [10, 16]: 80
- Plant response rating, Bermudagrass [10, 21]: 95
- Plant response rating, Bermudagrass [10, 17]: 100
- Plant response rating, Bermudagrass [10, 18]: 98
- Plant response rating, Bermudagrass [10, 19]: 100
- Plant response rating, Bermudagrass [10, 20]: 100
- Bermudagrass plant response rating [10, 26]: 100
- Plant response rating, Windgrass [11, 22]: 10
- Plant response rating, Windgrass [11, 23]: 20
- Plant response rating, Windgrass [11, 25]: 45
- Plant response rating, Chickweed [12, 22]: 100
- Plant response rating, Chickweed [12, 23]: 100
- Plant response rating, Chickweed [12, 24]: 100
- Plant response rating, Chickweed [12, 25]: 100
- Plant response rating, Canarygrass [13, 22]: 0
- Plant response rating, Canarygrass [13, 23]: 0
- Plant response rating, Canarygrass [13, 24]: 0
- Plant response rating, Canarygrass [13, 25]: 5
- Plant response rating, Barley [14, 22]: 30
- Plant response rating, Barley [14, 23]: 30
- Plant response rating, Barley [14, 24]: 35
- Plant response rating, Barley [14, 25]: 35

Structure (SMILES): CCc1ccc(-n2c(-c3ccccc3)ncc(C(=O)C3=C(O)CCCC3=O)c2=O)cc1 [Compound 219]
- Plant response rating, Oat, Wild [1, 15]: 50
- Plant response rating, Oat, Wild [1, 16]: 70
- Plant response rating, Oat, Wild [1, 17]: 85
- Plant response rating, Oat, Wild [1, 18]: 0
- Plant response rating, Oat, Wild [1, 19]: 0
- Plant response rating, Oat, Wild [1, 20]: 5
- Oat, Wild plant response rating ([1]; Preemergence, 250 g ai/ha): 40
- Plant response rating, Blackgrass [2, 15]: 50
- Plant response rating, Blackgrass [2, 16]: 55
- Plant response rating, Blackgrass [2, 21]: 55
- Plant response rating, Blackgrass [2, 17]: 90
- Plant response rating, Blackgrass [2, 18]: 30
- Plant response rating, Blackgrass [2, 19]: 35
- Plant response rating, Blackgrass [2, 20]: 40
- Blackgrass plant response rating ([2]; Preemergence, 250 g ai/ha): 60
- Plant response rating, Corn [3, 15]: 10
- Plant response rating, Corn [3, 16]: 60
- Plant response rating, Corn [3, 21]: 75
- Plant response rating, Corn [3, 17]: 80
- Plant response rating, Corn [3, 18]: 0
- Plant response rating, Corn [3, 19]: 0
- Plant response rating, Corn [3, 20]: 0
- Corn plant response rating ([3]; Preemergence, 250 g ai/ha): 0
- Plant response rating, Morningglory [4, 15]: 60
- Plant response rating, Morningglory [4, 16]: 85
- Plant response rating, Morningglory [4, 21]: 100
- Plant response rating, Morningglory [4, 17]: 100
- Plant response rating, Morningglory [4, 18]: 0
- Plant response rating, Morningglory [4, 19]: 0
- Plant response rating, Morningglory [4, 20]: 15
- Morningglory plant response rating ([4]; Preemergence, 250 g ai/ha): 100
- Plant response rating, Kochia [5, 22]: 80
- Plant response rating, Kochia [5, 23]: 98
- Plant response rating, Kochia [5, 24]: 98
- Plant response rating, Kochia [5, 25]: 100
- Plant response rating, Cocklebur [6, 23]: 75
- Cocklebur plant response rating [6]: 85
- Plant response rating, Johnsongrass [7, 16]: 60
- Plant response rating, Johnsongrass [7, 21]: 98
- Plant response rating, Johnsongrass [7, 17]: 100
- Plant response rating, Johnsongrass [7, 18]: 0
- Plant response rating, Johnsongrass [7, 19]: 15
- Plant response rating, Johnsongrass [7, 20]: 65
- Johnsongrass plant response rating ([7]; Preemergence, 250 g ai/ha): 80
- Plant response rating, Soybean [8, 15]: 95
- Plant response rating, Soybean [8, 16]: 98
- Plant response rating, Soybean [8, 17]: 100
- Plant response rating, Soybean [8, 18]: 0
- Plant response rating, Soybean [8, 19]: 0
- Plant response rating, Soybean [8, 20]: 65
- Soybean plant response rating ([8]; Preemergence, 250 g ai/ha): 75
- Plant response rating, Foxtail, Giant [9, 15]: 70
- Plant response rating, Foxtail, Giant [9, 16]: 70
- Plant response rating, Foxtail, Giant [9, 21]: 80
- Plant response rating, Foxtail, Giant [9, 17]: 95
- Plant response rating, Foxtail, Giant [9, 18]: 0
- Plant response rating, Foxtail, Giant [9, 19]: 0
- Plant response rating, Foxtail, Giant [9, 20]: 10
- Foxtail, Giant plant response rating ([9]; Preemergence, 250 g ai/ha): 80
- Plant response rating, Bermudagrass [10, 15]: 95
- Plant response rating, Bermudagrass [10, 16]: 98
- Plant response rating, Bermudagrass [10, 21]: 100
- Plant response rating, Bermudagrass [10, 17]: 100
- Plant response rating, Bermudagrass [10, 18]: 98
- Plant response rating, Bermudagrass [10, 19]: 100
- Plant response rating, Bermudagrass [10, 20]: 100
- Bermudagrass plant response rating [10, 26]: 100
- Plant response rating, Windgrass [11, 22]: 35
- Plant response rating, Windgrass [11, 23]: 40
- Plant response rating, Windgrass [11, 25]: 85
- Plant response rating, Chickweed [12, 22]: 100
- Plant response rating, Chickweed [12, 23]: 100
- Plant response rating, Chickweed [12, 24]: 100
- Plant response rating, Chickweed [12, 25]: 100
- Plant response rating, Canarygrass [13, 22]: 35
- Plant response rating, Canarygrass [13, 23]: 55
- Plant response rating, Canarygrass [13, 24]: 55
- Plant response rating, Canarygrass [13, 25]: 55
- Plant response rating, Barley [14, 22]: 0
- Plant response rating, Barley [14, 23]: 25
- Plant response rating, Barley [14, 24]: 30
- Plant response rating, Barley [14, 25]: 30
